From ChEMBL document CHEMBL4665769, “Artemyrianolides A-S, Cytotoxic Sesquiterpenoids from Artemisia myriantha” (J Nat Prod, 2020)

These compounds were tested on SMMC-7721 (assay: Cytotoxicity against human SMMC-7721 cells assessed as reduction in cell viability after 48 hrs by MTT assay). Conditions: SMMC-7721, 48 h.
Assay type: functional, cell-based

| Compound | IC50 [µM] |
| --- | --- |
| C=C1C(=O)O[C@@H]2C[C@H](C)[C@]3(/C=C/C(C)=O)O[C@@H]3C[C@H]12 | > 10 |
| C=C1C(=O)O[C@@H]2C[C@]3(C)[C@@H](CCC(C)=O)[C@@H]3C[C@H]12 | > 10 |
| C=C1C(=O)O[C@@H]2C[C@@]3(C)C=CC(=O)C(C)=C3C[C@H]12 | > 10 |
| C=C1C[C@@H](OC(C)=O)/C=C(\C)C[C@@H]2OC(=O)C(=C)[C@H]2C[C@H]1O | > 10 |
| C=C1C(=O)O[C@@H]2CC(=C)[C@@H]3CC[C@@](C)(O)[C@@H]3C[C@H]12 | > 10 |
| C=C1C[C@H]2OC(=O)C(=C)[C@H]2C[C@@H](O)C(=C)CCC1=O | > 10 |
| C=C1C[C@@H]2OC(=O)C(=C)[C@H]2C[C@@H]2[C@@H]1[C@H](OC(C)=O)C[C@@]2(C)O | > 10 |
| C=C1C(=O)O[C@H]2C/C(C)=C/[C@H](OC(C)=O)C[C@@]3(C)O[C@H]3C[C@H]12 | > 10 |
| C=C1C(=O)O[C@@H]2C[C@]3(C)[C@@H](C[C@H]12)[C@H](C)C(=O)[C@@H]1O[C@@H]13 | > 10 |
| C=C1C(=O)O[C@@H]2C[C@]3(C)O[C@H](C[C@H]12)C(=C)CC[C@@H]3O | > 10 |
| C=C1C(=O)O[C@H]2C[C@@]3(C)[C@H](O)CCC(=C)[C@]3(O)C[C@H]12 | > 10 |
| C=C1C(=O)O[C@H]2C[C@@]3(C)[C@H](O)CCC(=C)[C@]3(OO)C[C@H]12 | > 10 |
| C=C1C(=O)O[C@H]2C/C(C)=C/[C@H](OC(C)=O)CC(=C)[C@@H](O)C[C@H]12 | > 10 |
| C=C1C[C@@H](OC(C)=O)/C=C(\C)C[C@@H]2OC(=O)C(=C)[C@H]2C[C@@H]1OO | > 10 |
| C=C1C[C@@H](OC(C)=O)/C=C(\C)C[C@@H]2OC(=O)C(=C)[C@H]2CC1=O | 3.1 |
| C=C1C[C@@H](OC(C)=O)/C=C(\C)C[C@@H]2OC(=O)C(=C)[C@H]2C[C@@H]1OC(C)=O | > 10 |
| C=C1C(=O)O[C@H]2C/C(C)=C/[C@H](OC(C)=O)C[C@@]3(CO3)C(=O)C[C@H]12 | > 10 |
| CNC(=O)c1cc(Oc2ccc(NC(=O)Nc3ccc(Cl)c(C(F)(F)F)c3)cc2)ccn1 [SORAFENIB] | > 10 |
| C=C1C(=O)O[C@@H]2C[C@@]3(C)CCCC(=C)[C@]3(O)C[C@H]12 [TELEKIN] | > 10 |

The compounds below were run on Huh-7 (assay: Cytotoxicity against human Huh-7 cells assessed as reduction in cell viability after 48 hrs by MTT assay). Conditions: Huh-7, 48 h.
Assay type: functional, cell-based

| Compound | IC50 [µM] |
| --- | --- |
| C=C1C(=O)O[C@@H]2C[C@H](C)[C@]3(/C=C/C(C)=O)O[C@@H]3C[C@H]12 | 8.2 |
| C=C1C(=O)O[C@@H]2C[C@]3(C)[C@@H](CCC(C)=O)[C@@H]3C[C@H]12 | 7.8 |
| C=C1C(=O)O[C@@H]2C[C@@]3(C)C=CC(=O)C(C)=C3C[C@H]12 | > 10 |
| C=C1C[C@@H](OC(C)=O)/C=C(\C)C[C@@H]2OC(=O)C(=C)[C@H]2C[C@H]1O | > 10 |
| C=C1C(=O)O[C@@H]2CC(=C)[C@@H]3CC[C@@](C)(O)[C@@H]3C[C@H]12 | > 10 |
| C=C1C[C@H]2OC(=O)C(=C)[C@H]2C[C@@H](O)C(=C)CCC1=O | > 10 |
| C=C1C[C@@H]2OC(=O)C(=C)[C@H]2C[C@@H]2[C@@H]1[C@H](OC(C)=O)C[C@@]2(C)O | > 10 |
| C=C1C(=O)O[C@H]2C/C(C)=C/[C@H](OC(C)=O)C[C@@]3(C)O[C@H]3C[C@H]12 | > 10 |
| C=C1C(=O)O[C@@H]2C[C@]3(C)[C@@H](C[C@H]12)[C@H](C)C(=O)[C@@H]1O[C@@H]13 | > 10 |
| C=C1C(=O)O[C@@H]2C[C@]3(C)O[C@H](C[C@H]12)C(=C)CC[C@@H]3O | > 10 |
| C=C1C(=O)O[C@H]2C[C@@]3(C)[C@H](O)CCC(=C)[C@]3(O)C[C@H]12 | > 10 |
| C=C1C(=O)O[C@H]2C[C@@]3(C)[C@H](O)CCC(=C)[C@]3(OO)C[C@H]12 | > 10 |
| C=C1C(=O)O[C@H]2C/C(C)=C/[C@H](OC(C)=O)CC(=C)[C@@H](O)C[C@H]12 | > 10 |
| C=C1C[C@@H](OC(C)=O)/C=C(\C)C[C@@H]2OC(=O)C(=C)[C@H]2C[C@@H]1OO | 10 |
| C=C1C[C@@H](OC(C)=O)/C=C(\C)C[C@@H]2OC(=O)C(=C)[C@H]2CC1=O | 4.3 |
| C=C1C[C@@H](OC(C)=O)/C=C(\C)C[C@@H]2OC(=O)C(=C)[C@H]2C[C@@H]1OC(C)=O | > 10 |
| C=C1C(=O)O[C@H]2C/C(C)=C/[C@H](OC(C)=O)C[C@@]3(CO3)C(=O)C[C@H]12 | 8.8 |
| CNC(=O)c1cc(Oc2ccc(NC(=O)Nc3ccc(Cl)c(C(F)(F)F)c3)cc2)ccn1 [SORAFENIB] | 10.1 |
| C=C1C(=O)O[C@@H]2C[C@@]3(C)CCCC(=C)[C@]3(O)C[C@H]12 [TELEKIN] | > 10 |

Each compound was assayed on HepG2 (assay: Cytotoxicity against human HepG2 cells assessed as reduction in cell viability after 48 hrs by MTT assay). Conditions: HepG2, 48 h.
Assay type: functional, cell-based

| Compound | IC50 [µM] |
| --- | --- |
| C=C1C(=O)O[C@@H]2C[C@H](C)[C@]3(/C=C/C(C)=O)O[C@@H]3C[C@H]12 | > 10 |
| C=C1C(=O)O[C@@H]2C[C@]3(C)[C@@H](CCC(C)=O)[C@@H]3C[C@H]12 | > 7.4 |
| C=C1C(=O)O[C@@H]2C[C@@]3(C)C=CC(=O)C(C)=C3C[C@H]12 | > 10 |
| C=C1C[C@@H](OC(C)=O)/C=C(\C)C[C@@H]2OC(=O)C(=C)[C@H]2C[C@H]1O | > 10 |
| C=C1C(=O)O[C@@H]2CC(=C)[C@@H]3CC[C@@](C)(O)[C@@H]3C[C@H]12 | > 10 |
| C=C1C[C@H]2OC(=O)C(=C)[C@H]2C[C@@H](O)C(=C)CCC1=O | > 10 |
| C=C1C[C@@H]2OC(=O)C(=C)[C@H]2C[C@@H]2[C@@H]1[C@H](OC(C)=O)C[C@@]2(C)O | > 10 |
| C=C1C(=O)O[C@H]2C/C(C)=C/[C@H](OC(C)=O)C[C@@]3(C)O[C@H]3C[C@H]12 | > 10 |
| C=C1C(=O)O[C@@H]2C[C@]3(C)[C@@H](C[C@H]12)[C@H](C)C(=O)[C@@H]1O[C@@H]13 | > 10 |
| C=C1C(=O)O[C@@H]2C[C@]3(C)O[C@H](C[C@H]12)C(=C)CC[C@@H]3O | > 10 |
| C=C1C(=O)O[C@H]2C[C@@]3(C)[C@H](O)CCC(=C)[C@]3(O)C[C@H]12 | > 10 |
| C=C1C(=O)O[C@H]2C[C@@]3(C)[C@H](O)CCC(=C)[C@]3(OO)C[C@H]12 | > 10 |
| C=C1C(=O)O[C@H]2C/C(C)=C/[C@H](OC(C)=O)CC(=C)[C@@H](O)C[C@H]12 | > 10 |
| C=C1C[C@@H](OC(C)=O)/C=C(\C)C[C@@H]2OC(=O)C(=C)[C@H]2C[C@@H]1OO | > 10 |
| C=C1C[C@@H](OC(C)=O)/C=C(\C)C[C@@H]2OC(=O)C(=C)[C@H]2CC1=O | 4.9 |
| C=C1C[C@@H](OC(C)=O)/C=C(\C)C[C@@H]2OC(=O)C(=C)[C@H]2C[C@@H]1OC(C)=O | > 10 |
| C=C1C(=O)O[C@H]2C/C(C)=C/[C@H](OC(C)=O)C[C@@]3(CO3)C(=O)C[C@H]12 | 8.6 |
| CNC(=O)c1cc(Oc2ccc(NC(=O)Nc3ccc(Cl)c(C(F)(F)F)c3)cc2)ccn1 [SORAFENIB] | 8 |
| C=C1C(=O)O[C@@H]2C[C@@]3(C)CCCC(=C)[C@]3(O)C[C@H]12 [TELEKIN] | > 10 |
